Molecular target: T1, HMG-CoA reductase (Rattus norvegicus, UniProt P51639)
T1 construct: the male rat liver was removed and rinsed with KESD buffer; from tissue; host or cells: male rat liver microsomes
T1 sequence (P51639 1-887): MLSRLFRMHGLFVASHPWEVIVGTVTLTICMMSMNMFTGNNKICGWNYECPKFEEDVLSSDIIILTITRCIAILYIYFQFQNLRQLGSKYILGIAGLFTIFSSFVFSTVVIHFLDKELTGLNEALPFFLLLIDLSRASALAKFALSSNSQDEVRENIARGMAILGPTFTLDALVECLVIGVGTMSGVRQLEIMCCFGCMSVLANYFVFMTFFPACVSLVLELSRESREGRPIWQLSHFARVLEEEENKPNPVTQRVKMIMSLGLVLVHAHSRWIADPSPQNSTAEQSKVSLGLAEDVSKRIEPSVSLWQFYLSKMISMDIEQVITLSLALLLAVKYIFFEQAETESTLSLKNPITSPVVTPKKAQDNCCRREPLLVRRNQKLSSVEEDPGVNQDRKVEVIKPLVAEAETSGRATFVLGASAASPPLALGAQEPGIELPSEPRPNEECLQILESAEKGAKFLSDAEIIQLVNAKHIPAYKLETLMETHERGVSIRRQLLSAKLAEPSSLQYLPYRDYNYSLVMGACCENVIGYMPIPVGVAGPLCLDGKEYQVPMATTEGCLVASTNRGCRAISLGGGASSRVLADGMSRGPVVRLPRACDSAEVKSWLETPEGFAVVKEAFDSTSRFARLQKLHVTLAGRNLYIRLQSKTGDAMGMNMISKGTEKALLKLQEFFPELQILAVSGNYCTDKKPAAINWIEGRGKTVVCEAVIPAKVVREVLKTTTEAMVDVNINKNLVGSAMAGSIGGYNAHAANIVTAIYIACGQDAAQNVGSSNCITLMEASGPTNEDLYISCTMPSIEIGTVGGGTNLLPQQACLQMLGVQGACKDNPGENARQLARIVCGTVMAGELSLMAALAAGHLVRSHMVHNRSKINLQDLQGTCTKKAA
Test: Assay on HMG-CoA reductase-inhibiting activity (decreasing rate of OD340)
Format: biochemical
Details: for Inhibition rate (%): rat liver microsomes, 37° C., pH 6.8; for Slope (decreasing rate of OD340 within 5 min): blank control slope 13.5
Description: Rat liver microsomes (HMG-CoA reductase) were commercially purchased, or were prepared by reference to the following method: the male rat liver was removed and rinsed with KESD buffer, and then centrifuged at 12,000 g for 15 min. The supernatant was taken. After centrifugation at 105,000 g for 90 min twice, the centrifuged pellets resulted from centrifugation were collected. To the centrifuged pellets, 8.3% glycerol was added, and the resultant mixture was heated in a 37° C. warm bath for 1 h. The crude product of the rat liver microsomes was purified with saturated ammonium sulfate, and the 35-50% purified fraction was collected. The rat liver microsomes obtained were stored in −80° C. refrigerator.
Compound 5 was dissolved in 75% ethanol solution, at an initial concentration of 8.6 mg/ml, and was subjected to stepwise dilution to obtain 4.3 mg/ml, 2.15 mg/ml. The total volume of the test system was 250 μl, and the concentrations of various ingredients were as follows: 200 mM potassium chloride, 160 mM potassium dihydrogen phosphate, 4 mM ethylenediamine tetra acetic acid, 10 mM dithiothreitol, and the concentrations for the two substrates […] and 3-hydroxy-3-methylglutaryl-coenzyme A were 200 μM and 50 μM, pH 6.8, respectively, wherein 30 μl was added for enzyme, 5 μl was added for the test group, and 5 μl (solvent for dissolving the sample) was added for the control group. The dynamic change in OD340 was determined at 37° C. by Versamax ELISA Microplate Reader. The decreasing rate of OD340 (represented by slope) was measured within 5 min, to evaluate the HMG-CoA reductase activity, and to further evaluate the enzyme-inhibiting activity.

| Inhibition rate (%) (final concentration 43 μg/ml (inhibitor 2.15 mg/ml, 5 μl)) | Slope (decreasing rate of OD340 within 5 min) (final concentration 43 μg/ml) | Inhibition rate (%) (final concentration 86 μg/ml (inhibitor 4.3 mg/ml, 5 μl)) | Slope (decreasing rate of OD340 within 5 min) (final concentration 86 μg/ml) | Inhibition rate (%) (final concentration 172 μg/ml (inhibitor 8.6 mg/ml, 5 μl)) | Slope (decreasing rate of OD340 within 5 min) (final concentration 172 μg/ml) | Inhibition rate (%) (final concentration 80 μg/ml (inhibitor 4.0 mg/ml, 5 μl)) | Slope (decreasing rate of OD340 within 5 min) (final concentration 80 μg/ml) | SMILES | HMG-CoA reductase inhibition, result in words (43-172 μg/ml, dose-response relationship) |
| --- | --- | --- | --- | --- | --- | --- | --- | --- | --- |
| 19.2 | 10.9 | 33.3 | 9.0 | 42.2 | 7.8 | – | – | COC(=O)CC(O)CC(O)CCC1c2ccc(C)cc2C=CC1C (stereo not drawn) [Compound 5, methyl 7-(2,6-dimethyl-1,2-dihydronaphthalen-1-yl)-3,5-dihydroxyheptanoate] | inhibited the HMG-CoA reductase activity, and exhibited a dose-response relationship |
| – | – | – | – | – | – | 39.2 | 8.2 | CC[C@H](C)C(=O)O[C@H]1C[C@@H](C)C=C2C=C[C@H](C)[C@H](CC[C@@H]3C[C@@H](O)CC(=O)O3)[C@H]21 [lovastatin, reference compound] | – |
